Data on one molecule can be found in US20260306490A1, “PIM1 INHIBITOR FOR TREATING MYELOPROLIFERATIVE NEOPLASMS” (Sumitomo Pharma America, Inc., priority 2022, published 2026).

Molecules are shown by their SMILES.

Assay [1] has as its system human erythroid progenitors (CFU-E, BFU-E). The assay can be described thus: Colony forming cell assay, human erythroid progenitor (CFU-E, BFU-E) proliferation. Format: cell-based. The settings on record: 336 h, single agent, 14 days, CFU-E and BFU-E. The protocol:
Clonogenic progenitors of human erythroid (CFU-E, BFU-E), granulocyte-monocyte (CFU-GM), and multipotential (CFU-GEMM) lineages were assessed in a semi-solid methylcellulose-based media formulation containing rhIL-3 (10 ng/mL), rhGM-SCF (10 ng/mL), rhSCF (50 ng/mL), and Epo (3 U/mL).
In addition, 5-FU was evaluated at 1.0, 0.1 and 0.01 μg/mL as a positive control for toxicity.
Normal human bone marrow light density cells (lot #0210901), derived from normal bone marrow, (Lonza, Maryland) and qualified at ReachBio, were stored at −152° C. until required for the assay. On the day of the experiment, the cells were thawed rapidly, diluted in 10 mL of Iscove's modified Dulbecco's medium containing 10% fetal bovine serum (IMDM+10% FBS) and washed by centrifugation (approximately 1500 r.p.m. for 10 minutes at room temperature). The supernatant was discarded and the cell pellets were resuspended in a known volume of IMDM+10% FBS. A cell count (3% glacial acetic acid) and viability assessment (trypan blue exclusion test) was performed for the bone marrow sample.
Clonogenic progenitors of human megakaryocyte (CFU-Mk) were assessed in a collagen-based media formulation containing rhIL-3 (10 ng/mL), rhIL-6 (10 ng/mL), and Tpo (50 ng/mL). Clonogenic progenitors of the human erythroid (CFU-E and BFU-E), myeloid (CFU-GM), and megakaryocyte (CFU-Mk) lineages were set up in the media formulations described above. Individually, the test compounds were added to the medium to give the final desired concentrations (10, 3.33, 1, 0.333, 0.1, 0.0333, 0.01 and 0.00333 μM). […]
Human myeloid and erythroid progenitor assays were initiated at 1.2×10^4 cells per culture (lot #0210921) and the human megakaryocyte assays were initiated at 1.2×10^5 cells per culture (lot #0210921). Following 14 days in culture, erythroid and myeloid colonies were assessed microscopically in situ and scored by trained personnel. […] The colonies were assessed microscopically and scored by trained personnel and divided into the following categories based on size: CFU-Mk (3-20), CFU-Mk (21-49), and CFU-Mk (≥50).
Statistical analysis: The mean±standard deviation of three replicate cultures was calculated for both erythroid and myeloid progenitors. […]
Erythroid (CFU-E and BFU-E) and myeloid (CFU-GM) colony enumeration was performed by trained personnel. In addition, the distribution of colony types as well as general colony and cellular morphology was analyzed. The variance in colony number detected in replicate cultures was representative of the historical coefficient of variation for colony enumeration using these types of assays. The number and distribution of colonies detected in the solvent control (0.1% DMSO for single agents) was no different from the standard control (containing no compound and no DMSO). […]

A further assay has as its system PIM1. The settings on record: read-out: Preclinical IC50, PIM1; cited from earlier work.

For `CC(C)(O)[C@H]1CC[C@H](Nc2ccc3ncc(-c4cccc(C(F)(F)F)c4)n3n2)CC1` [Compound (1)], the values for the IC50 (in assay [1]; with PIM1) were 4250 nM and 5 nM, respectively.
